Literature values as cited in US20210315817A1, “C[…] SELF-EMULSION SYSTEMS FOR INFUSED COMPOSITIONS” (HEXO […]., priority 2018, published 2021).

Conditions: individual emulsifier HLB value

polyoxyethylene sorbitan monolaurate [Tween ® 20]
Emuls. HLB: 16.7
